Numbers after ± are expanded uncertainties.
Conditions: for thermal diffusivity: Optical interferometry; for speed of sound: Light diffraction method

CCCCC [pentane]
Conditions | speed of sound [m/s] | thermal diffusivity [m2/s]
306.16 K, Liquid | – | 7.18e-08 ± 3.7e-09
308.14 K, Liquid | 963.73 ± 5 | –
318.45 K, Liquid | 915.77 ± 4.7 | –
323.16 K, Liquid | – | 6.84e-08 ± 3.6e-09
328.23 K, Liquid | 866.06 ± 4.5 | –
338.02 K, Liquid | 815.68 ± 4.2 | –
338.39 K, Liquid | – | 6.42e-08 ± 3.3e-09
348.32 K, Liquid | 765.39 ± 4 | –
348.68 K, Gas | 189.16 ± 1.2 | –
353.16 K, Liquid | – | 6.19e-08 ± 3.2e-09
358.13 K, Liquid | – | 6.07e-08 ± 3.2e-09
358.22 K, Gas | 187.01 ± 1.2 | –
359.03 K, Liquid | 715.2 ± 3.7 | –
362.37 K, Liquid | – | 5.91e-08 ± 3.1e-09
367.9 K, Gas | 185.11 ± 1.2 | –
368.18 K, Liquid | – | 5.79e-08 ± 3e-09
368.31 K, Liquid | 667.88 ± 3.5 | –
373.47 K, Liquid | – | 5.74e-08 ± 3e-09
377.79 K, Gas | 183.06 ± 1.1 | –
378.2 K, Liquid | – | 5.69e-08 ± 3e-09
379.04 K, Liquid | 618.28 ± 3.2 | –
383.42 K, Liquid | – | 5.53e-08 ± 2.9e-09
388.15 K, Liquid | – | 5.45e-08 ± 2.8e-09
388.18 K, Gas | 178.8 ± 1.1 | –
388.52 K, Liquid | 571.45 ± 3 | –
393.32 K, Liquid | – | 5.4e-08 ± 2.8e-09
396.29 K, Liquid | – | 5.35e-08 ± 2.8e-09
398.16 K, Liquid | 529.46 ± 2.8 | –
398.34 K, Gas | 174.99 ± 1.1 | –
399.16 K, Liquid | – | 5.24e-08 ± 2.7e-09
403.33 K, Liquid | – | 5.16e-08 ± 2.7e-09
406.96 K, Liquid | 483.6 ± 2.6 | –
408.14 K, Gas | 169.99 ± 1.1 | –
408.63 K, Liquid | – | 5.12e-08 ± 2.7e-09
413.33 K, Liquid | – | 5.01e-08 ± 2.6e-09
417.94 K, Liquid | 428.66 ± 2.3 | –
418.17 K, Gas | 162.61 ± 1.1 | –
418.39 K, Liquid | – | 4.93e-08 ± 2.6e-09
423.55 K, Gas | – | 2.31e-07 ± 6.9e-09
423.61 K, Liquid | – | 4.84e-08 ± 2.5e-09
428.12 K, Gas | – | 2.14e-07 ± 6.4e-09
428.17 K, Gas | 155.41 ± 1 | –
428.17 K, Liquid | – | 4.69e-08 ± 2.4e-09
428.38 K, Liquid | 382.43 ± 2.1 | –
433.15 K, Gas | – | 1.92e-07 ± 5.8e-09
433.19 K, Gas | 150.86 ± 1 | –
433.29 K, Liquid | – | 4.58e-08 ± 2.4e-09
436.13 K, Gas | – | 1.77e-07 ± 5.3e-09
436.19 K, Liquid | – | 4.49e-08 ± 2.3e-09
438.21 K, Gas | 146.71 ± 1 | –
438.23 K, Liquid | 327.33 ± 1.8 | –
438.87 K, Gas | – | 1.64e-07 ± 4.9e-09
439.21 K, Liquid | – | 4.43e-08 ± 2.3e-09
442.09 K, Gas | – | 1.49e-07 ± 4.5e-09
442.35 K, Liquid | – | 4.38e-08 ± 2.3e-09
443.15 K, Gas | 140.85 ± 0.98 | –
445.16 K, Liquid | – | 4.34e-08 ± 2.3e-09
445.19 K, Gas | – | 1.35e-07 ± 4.1e-09
447.95 K, Gas | 136.18 ± 0.96 | –
448.08 K, Liquid | – | 4.2e-08 ± 2.2e-09
448.25 K, Gas | – | 1.2e-07 ± 3.6e-09
448.62 K, Liquid | 267.2 ± 1.5 | –
451.23 K, Gas | – | 1.08e-07 ± 3.2e-09
451.38 K, Liquid | – | 4.08e-08 ± 2.1e-09
453.26 K, Gas | 130.15 ± 0.93 | –
454.03 K, Gas | – | 9.78e-08 ± 2.9e-09
455.2 K, Liquid | – | 3.84e-08 ± 2e-09
457.04 K, Gas | – | 8.48e-08 ± 2.5e-09
457.87 K, Liquid | 209.66 ± 1.3 | –
458.28 K, Gas | 123.99 ± 0.91 | –
458.4 K, Liquid | – | 3.55e-08 ± 1.8e-09
460.05 K, Gas | – | 7.23e-08 ± 2.2e-09
460.1 K, Liquid | – | 3.37e-08 ± 1.8e-09
462.08 K, Gas | – | 5.64e-08 ± 1.7e-09
463.16 K, Gas | 116.39 ± 0.88 | –
463.27 K, Liquid | 170.65 ± 1.1 | –
463.41 K, Liquid | – | 3.04e-08 ± 1.6e-09
464.04 K, Gas | – | 4.16e-08 ± 1.2e-09
466.12 K, Gas | – | 3.45e-08 ± 1e-09
466.14 K, Liquid | 145.22 ± 1 | –
466.37 K, Liquid | – | 2.59e-08 ± 1.3e-09
469.33 K, Liquid | 111.31 ± 0.89 | –

From the NIST ThermoML archive (doi:10.1007/s10765-014-1718-x)
